Test: Toxicity after intravenous administration to patients
Format: in vivo, patient
Description: Aqueous solutions of t-butyl hydroperoxide are prepared by dissolving 50 ml of a 70% aqueous solution of t-butyl hydroperoxide in 1 litre of normal (0.9%) saline. 15-30 ml of this solution is given intravenously over a period of up to about 15 minutes.
Aqueous solutions of methyl, ethyl, propyl and butyl cysteine sulfoxide are prepared by dissolving 100 gram of the respective sulfoxide in 1 litre of normal (0.9%) saline. 30-60 ml of this solution (delivering an approximate […] dose of the sulfoxide) is given intravenously.
An aqueous solution of L-cystine is prepared by first dissolving 80 grams of N-methyl-D-glucamine in 1 litre of normal (0.9%) saline and the dissolving in 40 g of L-cystine. 50 to 60 ml of the solution (delivering an approximately 2 g dose of cystine) is given intravenously.
An aqueous solution of oxidised glutathione is prepared by dissolving 40 grams in 1 litre of normal (0.9%) saline. 50-60 ml of this solution (delivering an approximately 2 g dose of oxidised glutathione) is given intravenously.
The t-butyl hydroperoxide solution is administered by intravenous infusion over a period of up to about 15 minutes. This is then followed immediately by intravenous infusion of the sulfoxide, optionally with cystine and/or oxidised glutathione solutions, and then (within three minutes) Ultra High Frequency microwave radiation is commenced and is delivered over the next 20 - 30 minutes. 1 or 2 rest intervals of 2 to 3 minutes each are permitted during this application. Three such treatment sessions may be undertaken per day.
No immediate or late changes in blood pressure, renal or liver function, electrolytes or haematology have been seen from the method.

Structure (SMILES) | symptoms suggestive of any toxicity (human, in vivo, iv) | other results
CC[S+]([O-])CC(N)C(=O)O (stereo not drawn) [ethyl cysteine sulfoxide] | No symptoms suggestive of any toxicity | –
C[S+]([O-])CC(N)C(=O)O (stereo not drawn) [methyl cysteine sulfoxide] | No symptoms suggestive of any toxicity | –
C=CC[S+]([O-])CC(N)C(=O)O (stereo not drawn) [allyl cysteine sulfoxide] | No symptoms suggestive of any toxicity | –
CCCC[S+]([O-])CC(N)C(=O)O (stereo not drawn) [butyl cysteine sulfoxide] | No symptoms suggestive of any toxicity | –
CC(C)(C)OO [t-butyl hydroperoxide] | – | volume of saline solution of oxidising agent that can safely and effectively be administered (70% t-butyl hydroperoxide in water diluted in normal (0.9%) saline, intravenous, over about 5 minutes): 60 mL; symptoms suggestive of any toxicity (after the intravenous administration): No symptoms suggestive of any toxicity
CCC[S+]([O-])CC(N)C(=O)O (stereo not drawn) [propyl cysteine sulfoxide] | No symptoms suggestive of any toxicity | –
N[C@@H](CSSC[C@H](N)C(=O)O)C(=O)O [L-cystine] | No symptoms suggestive of any toxicity | NOAEL (human, in vivo, iv): > 100 mg/kg

Reference: patent publication EP0705603A1, “Use of non-toxic cysteine sulfoxide derivatives in the treatment of cancer or for enhancing the T-cell count” (priority 1994, dated 1996)
